# Results: PubChem BioAssay (NCI)
#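 Interpolation was linear, between the two tested concentrations surrounding the appropriate level; five concentrations were tested over 48 hours in 96-well plates. The concentration for 50% growth inhibition is given as GI50. TGI: total growth inhibition.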
# Experiments:
# Assay in all cases: NCI anticancer screen, dose series, 48 h
# [1] = system: NCI-H23 lung
# [2] = system: NCI-H460 lung
# [3] = system: NCI-H522 lung
# [4] = system: NCI/ADR-RES ovarian
# [5] = system: OVCAR-3 ovarian
# [6] = system: OVCAR-4 ovarian
# [7] = system: OVCAR-5 ovarian
# [8] = system: OVCAR-8 ovarian
# [9] = system: PC-3 prostate
# [10] = system: RPMI-8226 leukemia
# [11] = system: RXF 393 renal
# [12] = system: SF-268 CNS
# [13] = system: SF-295 CNS
# [14] = system: SF-539 CNS
# [15] = system: SK-MEL-2 melanoma
# [16] = system: SK-MEL-28 melanoma
# [17] = system: SK-MEL-5 melanoma
# [18] = system: SK-OV-3 ovarian
# [19] = system: SN12C renal
# [20] = system: SNB-19 CNS
# [21] = system: SNB-75 CNS
# [22] = system: SR leukemia
# [23] = system: SW-620 colon
# [24] = system: T-47D breast
# [25] = system: TK-10 renal
# [26] = system: U251 CNS
# [27] = system: UACC-257 melanoma
# [28] = system: UACC-62 melanoma
# [29] = system: UO-31 renal
smiles,measurement,setting,value
COc1ccc(Nc2nc(NCCNc3ccnc4cc(Cl)ccc34)nc(N3CCOCC3)n2)cc1,TGI,[1],29.7 µM
same,GI50,[2],4.58 µM
same,TGI,[2],19.3 µM
same,GI50,[3],3.85 µM
same,TGI,[3],11.5 µM
same,GI50,[4],6.38 µM
same,TGI,[4],24.9 µM
same,GI50,[5],11.5 µM
same,TGI,[5],24.3 µM
same,GI50,[6],9 µM
same,TGI,[6],24.5 µM
same,GI50,[7],15.7 µM
same,TGI,[7],31.4 µM
same,GI50,[8],6.46 µM
same,TGI,[8],27.4 µM
same,GI50,[9],3.94 µM
same,TGI,[9],19.8 µM
same,GI50,[10],2.75 µM
same,TGI,[10],13.1 µM
same,GI50,[11],1.89 µM
same,TGI,[11],8.92 µM
same,GI50,[12],5.02 µM
same,TGI,[12],19.5 µM
same,GI50,[13],2.05 µM
same,TGI,[13],3.92 µM
same,GI50,[14],2.18 µM
same,TGI,[14],7.54 µM
same,GI50,[15],2.19 µM
same,TGI,[15],4.28 µM
same,GI50,[16],1.81 µM
same,TGI,[16],3.28 µM
same,GI50,[17],1.59 µM
same,TGI,[17],3.04 µM
same,GI50,[18],11.7 µM
same,TGI,[18],24.6 µM
same,GI50,[19],8.73 µM
same,TGI,[19],23.4 µM
same,GI50,[20],10.6 µM
same,TGI,[20],23.6 µM
same,GI50,[21],2.09 µM
same,TGI,[21],8.73 µM
same,GI50,[22],2.01 µM
same,TGI,[22],7.36 µM
same,GI50,[23],3.47 µM
same,TGI,[23],13.4 µM
same,GI50,[24],11.6 µM
same,TGI,[24],28 µM
same,GI50,[25],7.64 µM
same,TGI,[25],20.6 µM
same,GI50,[26],3.1 µM
same,TGI,[26],15.4 µM
same,GI50,[27],1.87 µM
same,TGI,[27],3.61 µM
same,GI50,[28],1.85 µM
same,TGI,[28],3.59 µM
same,GI50,[29],1.33 µM
same,TGI,[29],14.2 µM
